# Measurements from patent US20180071268A1, “COMPOSITIONS AND METHODS FOR TREATING MICROBIOTA-RELATED PSYCHOTROPIC CONDITIONS AND DISEASES” (priority 2013, published 2018).
# How the values were obtained:
# Type in all cases: in vivo, human
# [1] = tested on: Autism Spectrum Disorder (ASD); experiment: Treatment of twin sisters with Autism Spectrum Disorder and OCD component with oral Gentamicin, then added Rifaximin (case report); details: oral Gentamicin 80 mg 3 times daily in capsules; within three weeks
# Description: Twin sisters who were diagnosed with Autism Spectrum Disorder (ASD) at different levels of reading capability, writing and comprehension in Grade 3 and 4, together with abdominal cramping and alternating hard/soft defecation changes were started on oral Gentamicin 80 mg 3 times daily in capsules. […] After three weeks Rifaximin was added to the mix of drugs at a dose of 500 mg twice daily and the patients were further observed with a combination of Gentamicin and Rifaximin.
# [2] = tested on: Autistic Spectrum Disorder(ASD); experiment: Treatment of child with Autistic Spectrum Disorder with Aztreonam, then added Vancomycin (case report); details: Aztreonam 50 mg 3 times daily; about two weeks after starting
# Description: A child who was diagnosed with development of Autistic Spectrum Disorder(ASD) with change in bowel habit, withdrawal from ‘society’ and loss of vocabulary/words/vocalizing ability as well as reduced socialisation and eye contact was treated with Aztreonam 50 mg 3 times daily.
# [3] = tested on: OCD; experiment: Exemplary treatment of OCD in adult with rifaximin (case report)
# Description: A married office worker had suffered with OCD since childhood. Having been treated with various pharmacologic agents through life their behaviour patterns were largely controlled except for one behaviour of needing to check gas outlets and powerpoints every night in case their children were hurt or damaged overnight by some unforseen accident. This continued to be a ‘sleep-draining’ issue not controllable by Zoloft, anfranil and other drugs.
# They were commenced on rifaximin 500 mg capsules twice daily for the first week, then 1 g twice daily thereafter.
# They remain on long term rifaximin.
# [4] = tested on: ASD; experiment: Treatment of person with ASD, chronic constipation and abdominal discomfort with oral Vancomycin (case report)
# Description: A patient was brought by their parent for consultation. They had been suffering from ASD since early childhood but also had chronic constipation and abdominal discomfort. The treatment was focussed on the constipation problem as this was the major component of their complaints when interviewed. They were commenced on to 50 mg Vancomycin twice daily for the first week increasing to 250 mg 3 times daily as an oral dose which is not absorbed. […] However they also noticed a change in behaviour of the child. They were much calmer, with their low vocabulary and inability to complain formally, they were no longer screaming and vocalising their pain using repetitive movements. […] This is both with verbal and non-verbal communication.
# [5] = oral Vancomycin, at four week interview
compound,measurement,setting,value
Gentamicin,episodes of OCD behaviour,[1],marked reduction in the number of episodes of OCD behaviour
C[C@H]1[C@H](NC(=O)/C(=N\OC(C)(C)C(=O)O)c2csc(N)n2)C(=O)N1S(=O)(=O)O [Aztreonam],eye contact,[2],greater eye contact
same,loose motions,[2],reduction in the loose motions
same,socialisation with the other children,[2],greater socialisation
same,word power,[2],no increase in word power
CO[C@H]1/C=C/O[C@@]2(C)Oc3c(C)c(O)c4c(O)c(c5c(nc6cc(C)ccn65)c4c3C2=O)NC(=O)/C(C)=C\C=C\[C@H](C)[C@H](O)[C@@H](C)[C@@H](O)[C@@H](C)[C@H](OC(C)=O)[C@@H]1C [rifaximin],persistence of the improvement during monitoring,[3]; next 3 months of monitoring their behaviour,almost universal
same,OCD behaviour: need to check gas outlets and powerpoints every night,"[3]; person, rifaximin 500 mg capsules twice daily first week, then 1 g twice daily",absence of the need to check the gas outlets and powerpoints
same,time until absence of the checking behaviour was noticed,"[3]; person, rifaximin 500 mg twice daily first week, then 1 g twice daily",≤ 10 days
CN[C@H](CC(C)C)C(=O)N[C@H]1C(=O)N[C@@H](CC(N)=O)C(=O)N[C@H]2C(=O)N[C@H]3C(=O)N[C@H](C(=O)N[C@H](C(=O)O)c4cc(O)cc(O)c4-c4cc3ccc4O)[C@H](O)c3ccc(c(Cl)c3)Oc3cc2cc(c3O[C@@H]2O[C@H](CO)[C@@H](O)[C@H](O)[C@H]2O[C@H]2C[C@](C)(N)[C@H](O)[C@H](C)O2)Oc2ccc(cc2Cl)[C@H]1O [Vancomycin],abdominal discomfort initially after start of treatment,"[4]; oral Vancomycin 50 mg twice daily first week increasing to 250 mg 3 times daily, initially",some increase in abdominal discomfort
same,side effects from the medication,"[4]; oral Vancomycin 750 mg to 1 g, nine months of treatment",without any undue side effects
same,"communication, verbal and non-verbal","[4]; oral Vancomycin, after four months",better communication between the parents and the child
same,behaviour of the child,[4]; [5],much calmer
same,constipation and pain,[4]; [5],markedly improved
same,repetitive movements,[4]; [5],came down quite markedly
same,pain,"[4]; oral Vancomycin, within a few days onwards",progressively disappeared
same,bowel function (evacuation frequency),"[4]; oral Vancomycin, within a few days, before: once every three to four days",daily or twice daily and even three times daily evacuation
